The results in this text go back to ChEMBL document CHEMBL1772964, “Structural requirements of flavonoids for the adipogenesis of 3T3-L1 cells” (Bioorg Med Chem, 2011).

Series [1] has as its system 3T3-L1. Briefly: Induction of adipogenesis in mouse 3T3L1 cells assessed as increase in triglyceride level at 10 uM on day 8 relative to control. The class given is functional.
For series [2], the system named is 3T3-L1. Briefly: Induction of adipogenesis in mouse 3T3L1 cells assessed as increase in triglyceride level at 1 uM on day 8 relative to control. It is filed as functional.
Series [3] has as its system 3T3-L1. In words: Induction of adipogenesis in mouse 3T3L1 cells assessed as increase in triglyceride level at 30 uM on day 8 relative to control. It is filed as functional.
Series [4] relates to 3T3-L1. Briefly: Induction of adipogenesis in mouse 3T3L1 cells assessed as increase in triglyceride level at 3 uM on day 8 relative to control. It is filed as functional.
For series [5], the system named is 3T3-L1. Briefly: Cytotoxicity in mouse 3T3L1 cells assessed as reduction in triglyceride accumulation at 30 uM. It is filed as cell-based. The conditions noted are these: 3t3-l1, 30 µM.
The test system of series [6] is 3T3-L1. Briefly: Induction of adipogenesis in mouse 3T3L1 cells assessed as increase in triglyceride level at 0.3 uM on day 8 relative to control. It is filed as functional.

Regarding `O=c1cc(-c2ccccc2)oc2cc(O)ccc12` [7-HYDROXYFLAVONE], the Activity in the series with 3T3-L1 [1] came out at 17.1%; with 3T3-L1 [2], 12.2%; with 3T3-L1 [3] it was 5.3%; in the series with 3T3-L1 [4], 13.7%.
For `Oc1cc(O)c2c(c1)O[C@H](c1cc(O)c(O)c(O)c1)[C@H](O)C2` [EPIGALLOCATECHIN] the same measures were -10.2%, -9.5%, -19.5% and -3.8%.
As for `O=C1C[C@@H](c2ccc(O)c(O)c2)Oc2cc(O)cc(O)c21` [ERIODICTYOL], the Activity in the series on 3T3-L1 [1] was -10.3%; in the series with 3T3-L1 [2], 1.6%; in the series on 3T3-L1 [3], -10.3%; in the series on 3T3-L1 [4] it was -5%.
With `COc1ccc(-c2cc(=O)c3ccc(OC)cc3o2)cc1` [4,7-DIMETHOXYFLAVONE], the Activity in the series on 3T3-L1 [1] is 4.3%; in the series on 3T3-L1 [2] it was 1.2%; with 3T3-L1 [3] it was 6.3%; in the series with 3T3-L1 [4], 3.4%.
For the compound `O=c1c(-c2ccc(O)cc2)coc2cc(O)ccc12` [DAIDZEIN], the Activity with 3T3-L1 [1] was found to be 8.5%; with 3T3-L1 [2] it was 2%; in the series on 3T3-L1 [3], 13.4%; in the series on 3T3-L1 [4], 6.5%.
Take `Oc1cc(O)c2c(c1)O[C@H](c1ccc(O)c(O)c1)[C@H](O)C2` [(-)-EPICATECHIN]: the Activity in the series with 3T3-L1 [1] is reported as -7.2%; with 3T3-L1 [2], 3.7%; in the series with 3T3-L1 [3] it was -0.6%; in the series with 3T3-L1 [4], 6.1%.
For `COc1cc(O)c2c(=O)cc(-c3ccccc3)oc2c1` [TECHTOCHRYSIN], in that order: 10.4%, 7.4%, 17.5% and 10.7%.
As for `O=C(/C=C/c1ccc(O)cc1)c1ccc(O)cc1O` [ISOLIQUIRITIGENIN], the Activity is on record as -0.7% in the series on 3T3-L1 [1], 2.7% in the series on 3T3-L1 [2], -33.7% in the series on 3T3-L1 [3] and 4% with 3T3-L1 [4].
For `O=c1c(O[C@@H]2O[C@H](CO)[C@@H](O)[C@H](O)[C@H]2O)c(-c2ccc(O)c(O)c2)oc2cc(O)cc(O)c12` [ISOQUERCETIN], in that order: -0.2%, -2.2%, -2.4% and 0.1%.
Consider `O=c1cc(-c2ccc(O)c(O)c2)oc2cc(O)cc(O)c12` [LUTEOLIN], for which the Activity in the series with 3T3-L1 [1] is listed as -14.2%; in the series on 3T3-L1 [2], 3.9%; in the series on 3T3-L1 [3], -41.3%; with 3T3-L1 [5], “Toxic”; in the series on 3T3-L1 [4], -6.4%.
For `COc1ccc(-c2cc(=O)c3c(OC)c(OC)c(OC)c(OC)c3o2)cc1OC` [NOBILETIN], the Activity was 14.1% in the series on 3T3-L1 [6]; 10.7% in the series on 3T3-L1 [1]; 15.3% with 3T3-L1 [2]; -6.7% in the series with 3T3-L1 [3]; 12.6% in the series with 3T3-L1 [4].
With `O=c1cc(-c2ccccc2)oc2ccccc12` [FLAVONE], the Activity in the series on 3T3-L1 [1] is -5.2%; with 3T3-L1 [2] it was -2.6%; with 3T3-L1 [3], -10.9%; in the series with 3T3-L1 [4] it was -6.8%.
For `O=c1c(O)c(-c2ccc(O)c(O)c2)oc2cc(O)ccc12` [FISETIN] the same measures were -8.8%, 4.1%, -2.7% and -2.4%.
For `COc1cc(OC)c2c(=O)cc(-c3ccccc3)oc2c1` [CHRYSIN DIMETHYL ETHER], the Activity in the series with 3T3-L1 [1] is on record as 6.3%; in the series on 3T3-L1 [2], 7.5%; in the series with 3T3-L1 [3], -88.1%; in the series with 3T3-L1 [5], “Toxic”; in the series on 3T3-L1 [4] it was 3.4%.
On to `COc1cc(O)c2c(=O)c(O)c(-c3ccc(OC)c(O)c3)oc2c1` [OMBUINE], for which the Activity was 4.6% in the series on 3T3-L1 [1], -2.1% in the series with 3T3-L1 [2], 24.7% in the series on 3T3-L1 [3] and 5.9% with 3T3-L1 [4].
For `O=c1cc(-c2ccc(O)cc2)oc2cc(O)ccc12` the same measures were -1.5%, -8.1%, -5.7% and -3.9%.
For `COc1cc(O)c2c(=O)c(OC)c(-c3ccc(OC)c(OC)c3)oc2c1` [RETUSIN], in that order: 21%, 3.8%, 3.8% and 11.2%.
Regarding `COc1c(O)cc(O)c2c(=O)cc(-c3ccccc3)oc12` [WOGONIN], the Activity in the series on 3T3-L1 [1] stood at 19.2%; in the series on 3T3-L1 [2], 7.8%; with 3T3-L1 [3] it was 16.6%; in the series with 3T3-L1 [4], 9.6%.
For `O=c1c(O)c(-c2cc(O)c(O)c(O)c2)oc2cc(O)cc(O)c12` [MYRICETIN] the same measures were -0.7%, 4.3%, 5.6% and 2.7%.
For `O=c1cc(-c2ccc(O)c(O)c2)oc2cc(O)ccc12`, in that order: 14.8%, 4.5%, -1.7% and 9%.
For the compound `O=c1c(O[C@@H]2O[C@H](CO)[C@@H](O)[C@H](O)[C@H]2O)c(-c2ccc(O)cc2)oc2cc(O)cc(O)c12` [ASTRAGALIN], the Activity in the series with 3T3-L1 [1] turned out to be 8.8%; in the series on 3T3-L1 [2], 2.1%; with 3T3-L1 [3], 10.2%; in the series on 3T3-L1 [4], 4.7%.
For the compound `O=c1cc(-c2ccccc2)oc2cc(O)c(O)c(O)c12` [BAICALEIN], the Activity is -21.8% in the series on 3T3-L1 [1]; -5.2% with 3T3-L1 [2]; -37.2% with 3T3-L1 [3]; “Toxic” in the series on 3T3-L1 [5]; -7.7% in the series with 3T3-L1 [4].
`O=c1c(O)c(-c2ccc(O)c(O)c2)oc2c(O)c(O)cc(O)c12` [GOSSYPETIN]: the Activity with 3T3-L1 [1] was -6.7%; in the series with 3T3-L1 [2], 17.5%; in the series with 3T3-L1 [3], -9.5%; in the series with 3T3-L1 [4], -2.9%.
For `O=c1cc(-c2ccc(O)c(O)c2)oc2ccccc12` the same measures were 9.8%, 5.9%, -21% and 13.8%.
As to `O=c1cc(-c2ccc(O)cc2)oc2cc(O)cc(O)c12` [APIGENIN], the Activity in the series with 3T3-L1 [1] is reported as 7%; in the series with 3T3-L1 [2], 4.5%; in the series with 3T3-L1 [3], -7.7%; with 3T3-L1 [4], 4.9%.
For `COc1cc(O)c2c(=O)c(O)c(-c3ccc(O)c(O)c3)oc2c1` [RHAMNETIN], the Activity with 3T3-L1 [6] is on record as 15.5%; with 3T3-L1 [1] it was 2.4%; in the series on 3T3-L1 [2], 19%; with 3T3-L1 [3] it was -21.4%; with 3T3-L1 [4], 1.9%.
For the compound `COc1ccc2c(c1)OC(c1ccc(O)cc1)CC2=O` (centres undefined), the Activity was 2.6% with 3T3-L1 [1], -1.2% in the series with 3T3-L1 [2], 13.5% with 3T3-L1 [3] and 2.2% in the series with 3T3-L1 [4].
`O=C1CC(c2ccccc2)Oc2ccccc21` (centres undefined) [FLAVANONE]: the Activity in the series with 3T3-L1 [1] is on record as 2.5%; in the series on 3T3-L1 [2], -1.9%; with 3T3-L1 [3], 1%; in the series with 3T3-L1 [4], 5.1%.
As for `COc1ccc(-c2coc3cc(O)cc(O)c3c2=O)cc1` [BIOCHANIN], the Activity with 3T3-L1 [1] is reported as 1.2%; in the series with 3T3-L1 [2], 2.6%; in the series on 3T3-L1 [3], -16.5%; in the series on 3T3-L1 [4], 6.1%.
With `COc1ccc(-c2cc(=O)c3c(O)cc(OC)cc3o2)cc1`, the Activity in the series with 3T3-L1 [6] worked out at 7.7%; in the series with 3T3-L1 [1] it was 5.8%; with 3T3-L1 [2], 19%; in the series with 3T3-L1 [3], 6.8%; in the series on 3T3-L1 [4], 12.2%.
On to `O=c1c(O)c(-c2ccc(O)c(O)c2)oc2cc(O)cc(O)c12` [QUERCETIN], for which the Activity was determined as 3% in the series on 3T3-L1 [1], 7% with 3T3-L1 [2], 3.9% in the series with 3T3-L1 [3] and 5.8% in the series on 3T3-L1 [4].
For `COc1cc(O)c2c(=O)c(OC)c(-c3ccccc3)oc2c1`, the Activity with 3T3-L1 [1] came out at 14.2%; in the series with 3T3-L1 [2], 13.3%; in the series with 3T3-L1 [3], 17.7%; with 3T3-L1 [4], 13.7%.
For `COc1cc(OC)c2c(=O)cc(-c3ccc(OC)c(OC)c3)oc2c1` [TETRAMETHYLLUTEOLIN], the Activity is 7.4% with 3T3-L1 [1], 2.6% with 3T3-L1 [2], -15.3% in the series on 3T3-L1 [3] and 3.1% in the series on 3T3-L1 [4].
`Oc1cc(O)c2c(c1)O[C@H](c1ccc(O)c(O)c1)[C@@H](O)C2` [CIANIDANOL]: the Activity in the series on 3T3-L1 [1] is given as 7.9%; with 3T3-L1 [2], -0.5%; with 3T3-L1 [3], 11.9%; with 3T3-L1 [4], 6.4%.
Turning to `COc1cc(OC)c2c(=O)c(OC)c(-c3ccccc3)oc2c1`, the Activity in the series with 3T3-L1 [1] amounted to 13.2%; in the series on 3T3-L1 [2], 9%; with 3T3-L1 [3], 6.6%; in the series with 3T3-L1 [4], 10.4%.
With `O=C(/C=C/c1ccc(O)c(O)c1)c1ccc(O)cc1O` [BUTEIN], the Activity with 3T3-L1 [1] is listed as -7.3%; with 3T3-L1 [2] it was 14.8%; in the series on 3T3-L1 [3], -80.8%; in the series with 3T3-L1 [5], “Toxic”; in the series on 3T3-L1 [4], 17.5%.
`COc1cc(O)c2c(=O)c(OC)c(-c3ccc(OC)c(O)c3)oc2c1` [AYANIN]: the Activity in the series with 3T3-L1 [1] is given as 18.5%; with 3T3-L1 [2], 2.6%; with 3T3-L1 [3], 0.4%; in the series with 3T3-L1 [4], 16.3%.
For `O=c1c(-c2ccc(O)cc2)coc2cc(O)cc(O)c12` [GENISTEIN] the same measures were -17.6%, -4.3%, -19.2% and -4.3%.
